Results reported in patent US12257246B2, “Composition of 2,4,6-trifluoro-n-[6-(1-methyl-piperidin-4-carbonyl)-pyridin-2-yl[-benzamide” (CoLucid Pharmaceuticals, Inc., priority 2009, dated 2025).
Entries after “also recorded” stand apart in the source; their conditions may differ.

System: patients with migraine
Assay: Intravenous dose-finding study in acute migraine: tolerability and safety
Type: in vivo, human
Protocol: The study used a prospective, randomized, double-blind, placebo-controlled design with group-sequential adaptive-treatment assignment (Olesen J et al., N Engl J Med 2004: 350: 1104-10; Hall D B et al., Contemporary Clinical Trials 2005; 26: 349-63). […] The first cohort was allocated to the 2.5 mg dose level. The dose used in subsequent cohorts depended on the headache response (moderate or severe headache reduced to mild or none at 2 hours) of the previous cohort: if 2 or less of the 4 active-treated patients had responded, the dose was increased, and if 3 or more of the 4 active-treated patients had responded, the dose was reduced. The dose adjustment rules were chosen to identify doses of Compound I with efficacy similar to or better than an oral triptan. […] The occurrence of a drug-related serious adverse event would lead to automatic suspension of the randomization pending a safety review.
Data were entered concurrently into an online electronic data capture system. Patients were discharged from the clinic after 4 h and continued to record migraine symptoms and adverse events until 24 h using a diary card.

CN1CCC(C(=O)c2cccc(NC(=O)c3c(F)cc(F)cc3F)n2)CC1 [Compound I, 2,4,6-trifluoro-N-[6-(1-methyl-piperidin-4-ylcarbonyl)-pyridin-2-yl]-benzamide]
Patients with adverse event Fatigue (2.5 mg iv): 0.0%
Patients with adverse event Feeling of relaxation (2.5 mg iv): 0.0%
Patients with adverse event Paresthesia (2.5 mg iv): 0.0%
Patients with adverse event Sensation of heaviness (2.5 mg iv): 0.0%
Patients with adverse event Feeling of relaxation (5 mg iv): 0.0%
Patients with adverse event Paresthesia (5 mg iv): 0.0%
Patients with adverse event Sensation of heaviness (5 mg iv): 0.0%
Patients with adverse event Feeling of relaxation (10 mg iv): 0.0%
Patients with adverse event Fatigue (45 mg iv): 0.0%
Patients with adverse event Feeling of relaxation (45 mg iv): 0.0%
Patients with adverse event Sensation of heaviness (45 mg iv): 0.0%
patients reporting adverse events (all iv doses 2.5 to 45 mg (placebo 43%)): 65%
tolerability (doses above 60 mg intravenously over 20 minutes): not well tolerated
serious adverse events or withdrawals (iv): no serious adverse events or withdrawals due to non-serious adverse events
vital signs, ECG, hematological and clinical chemistry parameters (iv): No clinically significant changes; also recorded: no clinically significant abnormalities
tolerability (iv 2.5 to 45 mg over 20 min): generally well tolerated
triptan-like chest symptoms (iv infusion): No patient reported triptan-like chest symptoms; also recorded: no patient-reported chest symptoms or chest discomfort
